The values that follow come from patent US20040024048A1, “Medicaments for treating dementia” (priority 2000, published 2004).

Assay [1] relates to patients with clinical manifestations of dementing deficits. The assay is described as follows: mini-mental state examination (MMSE) in dementia patients. Format: in vivo, human. An excerpt:
The mini-mental state examination test was published by Marshall Folstein in 1975 and was originally intended as a test to differentiate cognitive functions (Folstein et al., 1975). Because the test is short, it is now used as screening test in studies for establishing inclusion/exclusion criteria. The test covers orientation, attention, short- and medium-term memory, word-finding, reading, writing, and in addition a command to perform an action must be obeyed. The tasks in the test are designed so that they can normally be solved without difficulty by people without cognitive impairment. The maximum score achievable is 30, and a score of less than 24 indicates a dementing disorder. The following levels are generally differentiated (Zec et al., 1992).
(§1) Patients with clinical manifestations of dementing deficits and suspected brain damage based on Alzheimer's dementia or vascular dementia or a similar suspected diagnosis were treated with medicines to improve the symptomatic cognitive deficits (nootropics). Since all the active ingredients currently available in the dementia sector provide only marginal improvements, it was justified, despite the disappointing first study, to administer α-lipoic acid in high dose to patients on the basis of this basic therapy. The effect of the therapy was assessed using standardized clinical dementia assessment scales which are usual now and which are distinguished by high reliability. This comprises the mini-mental state examination (MMSE) or the Alzheimer's disease assessment scale (ADAS). The advantage of these clinical instruments is that the severity of the dementia can be established reliably, irrespective of the organic cerebral basis, which is usually not unambiguous, of the clinical picture of dementia.

Assay [2] has the same test system. The assay is described as follows: Alzheimer's disease assessment scale (ADAS / ADAS-Cog) in dementia patients. The format is in vivo, human.
From the text: A further test for establishing the neuropsychological status of a dementia patient is the “Alzheimer's Disease Assessment Scale-Cognitive Subscale (ADAS-Cog)” (Rosen et al., 1984). The Alzheimer Disease Assessment Scale was invented by W. G. Rosen, R. C. Mohs, 1988, Rosen and K. L. Davis, 1984, and the German version was produced by R. Ihl and G. Weyer, Beltz Test 1993. The ADAS was not originally intended to be a diagnostic instrument, but separates dementing people from healthy control subjects of the same age very well. The following criteria can be distinguished in the ADAS: cognitive area, noncogn. area, memory, orientation/praxis, motor function, depression, psychotic symptoms, concentration/cooperation, speech. In the version used here, speech is included in the cognitive area, and thus a max. minus score of 70 is possible. It was possible to show for people with Alzheimer-type dementia that the complete scale increases by 5 to 7 points on average over the course of 12 months, and by 14 points on average over the course of 24 months. The items in the cognitive part are most sensitive in this regard.
as §1

For assay [3], the system named is aging animals. To be noted: cited from earlier work.
In assay [4] the test system is patients with HIV dementia. The note with it: cited from earlier work.
In assay [5] the test system is aged rats. To be noted: high dose, cited from earlier work.
Assay [6] concerns patients with clinical manifestations of dementing deficits. Put plainly: Global Deterioration Scale (GDS) in dementia patients. The format is in vivo, human. To be noted: GDS 4/5 at start. The source says:
Standardized methods are developed for routine dementia screening, e.g. the mini-mental state examination (MMSE) or the Alzheimer's Disease Assessment Scale (ADAS). Further methods would be: GDS: Global Deterioriation Scale (Reisberg et al., 1982), FAST: Functional Assessment Staging (Reisberg, 1988).

The test system of assay [7] is patients with sclerotic dementia and involutional depressions. The note with it: 25-50 mg, patent calls findings unconfirmed and misleading; cited from earlier work.
Setting [8] is: Patient 2, Alzheimer's dementia, Aricept 5/10 mg/day for 12 months, before lipoic acid.
The mark [9] stands for this setting: Patient 3, Alzheimer's dementia, Aricept 5 mg/day 13 months plus 600 mg vitamin E.
Where [10] appears, read: Patient 4, Alzheimer's dementia, Aricept 5/10 mg/day 19 months, 300 mg aspirin and 600 mg vitamin E 20 months.
Setting [11] is: patients with HIV dementia, administration of α-lipoic acid.
Setting [12] is: Patient 1, Alzheimer's dementia, 4 weeks additional 600 mg a-lipoic acid on Aricept.
Where [13] appears, read: Patient 2, additional 600 mg lipoic acid over 7 months on Aricept, Remotiv, vitamin E.
Setting [14] is: Patient 3, additional 600 mg lipoic acid on Aricept and vitamin E.
The mark [15] stands for this setting: Patient 4, 600 mg lipoic acid for 8 months on Aricept, aspirin, vitamin E.
[16] abbreviates: Patient 6, 600 mg lipoic acid on basic therapy.
Setting [17] is: Patient 11, dementia plus parkinsonism, 600 mg lipoic acid 4 months on Aricept and Madopar T.
Setting [18] is: Patient 8, 600 mg lipoic acid 4 weeks, Aricept 8 weeks.

Like-named read-outs stand apart in the source and are kept apart here.

For the molecule `COc1cc2c(cc1OC)C(=O)C(CC1CCN(Cc3ccccc3)CC1)C2` (centres unmarked) [Aricept, donepezil], the “deterioration of cognitive status in the MMSE” value in assay [1] (Patient 1, Alzheimer's dementia, Aricept 5/10 mg/day for 4 months, before lipoic acid) is 1 point. In addition, the “deterioration in the MMSE score” value in assay [1] (setting [8]) was 7; in assay [1] (Patient 5, Alzheimer's dementia, Aricept 5/10 mg/day 24 months with Accuzide 20, Akatinol, 600 mg vitamin E) it was 6; in assay [1] (Patient 6, Alzheimer's dementia, Aricept 5/10 mg/day 13 months with aspirin 100, Rökan, 600 mg vitamin E), 5; in assay [1] (Patient 7, Alzheimer's dementia, Aricept 5 mg/day 6 months plus 600 mg vitamin E) it was 6. Also, the MMSE score deterioration in assay [1] (setting [9]) worked out at 2. In assay [1] (setting [10]), the “decrease in the MMSE score” value was found to be 5. In addition, in assay [1] (Patient 9, Lewy body dementia, Aricept 5 mg 12 months, Madopar T and Madopar Depot, before lipoic acid), the MMSE score reached is recorded as 17. Besides, the “ADAS score reached (deterioration)” value in assay [2] (setting [8]) turned out to be 53. Besides, in assay [2] (setting [9]), the ADAS score increase is given as 14. In addition, the “decrease of cognitive ability in the ADAS score” value in assay [2] (setting [10]) is 9.
As for `CCN(C)C(=O)Oc1cccc([C@H](C)N(C)C)c1` [Exelon], the MMSE score decrease in assay [1] (Patient 10, frontal cerebral atrophy, Exelon 6 mg/day for 9 months) stood at 5.
Regarding `O=C(O)CCCCC1CCSS1` (stereo not drawn) [R(+)-α-lipoic acid], in assay [3], the “influence on motor functions” value is “beneficial influence”.
Regarding `C#CCN(C)[C@H](C)Cc1ccccc1` [deprenyl], the “effects on cognitive performance” value in assay [4] (demented patients, active control drug in the HIV dementia study) is listed as “confirmed its known beneficial effects”.
For the molecule `O=C(O)CCCCC1CCSS1` (stereo not drawn) [α-lipoic acid, 1,2-dithiolane-3-pentanoic acid], the “effect on the cognitive function” value in assay [4] (patients with HIV dementia, 600 mg α-lipoic acid monotherapy) is “no effect whatsoever”. Also, the learning result in assay [4] (setting [11]) was “deterioration in learning”. Further, in assay [4] (setting [11]), the “verbal learning ability and memory” value is recorded as “declined significantly”. Further, the memory performance entry in assay [5] (aged rats) is “improvement in memory performance”; in assay [5] (young animals), “not in young animals”. Besides, the “GDS reached (improved)” value is 4 in assay [6] (Patient 3, additional 600 mg lipoic acid) and 4 in assay [6] (Patient 6, 600 mg lipoic acid). The “GDS level reached (improved by one level)” value in assay [6] (Patient 5, 600 mg lipoic acid) came out at 4. Further, the MMSE score improvement in assay [1] (setting [12]) was 2; in assay [1] (setting [14]), 1; in assay [1] (Patient 5, first 3 months of 600 mg lipoic acid on basic therapy), 1. Besides, the “improvement in the MMSE score” value was determined as 1 point in assay [1] (setting [13]); 2 in assay [1] (setting [15]); 1 in assay [1] (Patient 7, after two months of 600 mg lipoic acid on Aricept and vitamin E); 3 in assay [1] (Patient 9, Lewy body dementia, 600 mg lipoic acid on Aricept and Madopar); 1 in assay [1] (Patient 10, frontal cerebral atrophy, additional 600 mg lipoic acid on Exelon). Also, the “course of the dementia (MMSE) since lipoic acid” value in assay [1] (setting [16]) is “no further deterioration”. Moreover, the MMSE score now in assay [1] (Patient 8, Alzheimer's dementia, 600 mg lipoic acid 4 weeks, Aricept 8 weeks, score 18 at start of lipoic acid) came out at 20. In addition, in assay [1] (setting [17]), the MMSE score course result is reported as “remained at the same level”. The MMSE score reached in assay [1] (Patient 12, frontal cerebral atrophy, 600 mg lipoic acid 4 weeks, Aricept 8 weeks, other drugs, from 16) is reported as 18. The ADAS score decrease is recorded as 6 in assay [2] (setting [12]) and 5 in assay [2] (Patient 12, frontal cerebral atrophy, 600 mg lipoic acid 4 weeks, Aricept 8 weeks). The ADAS score reached in assay [2] (Patient 1, Alzheimer's dementia, after 4 weeks additional 600 mg a-lipoic acid on Aricept) was determined as 18; in assay [2] (setting [18]) it was 35 error points; in assay [2] (Patient 12, frontal cerebral atrophy, 600 mg lipoic acid 4 weeks, Aricept 8 weeks, from 41 points) it was 36 points. Moreover, the “improvement in the ADAS score” value in assay [2] (setting [13]) is on record as 11 points. The same molecule displayed an ADAS score recovery in assay [2] (setting [14]) of 2. The “ADAS score went back” value in assay [2] (setting [15]) is on record as 3 points. In assay [2] (setting [16]), the ADAS score loss is listed as 8. Further, the ADAS course result in assay [2] (Patient 7, 600 mg lipoic acid on Aricept and vitamin E) is given as “remains constant”. Also, the ADAS score decline in assay [2] (setting [18]) was 3. Moreover, the ADAS score course entry in assay [2] (setting [17]) is reported as “remained at the same level”. Also, the manifestations of dementia entry in assay [7] is listed as “improvement of manifestations of dementia”.
